Data set [1] is described as follows: Safety index, ratio of CC50 for human Huh7.5 cells to EC50 for Hepatitis C virus subtype 2a J6/JFH.
The test system of the next data set is Hepatitis C virus. Description: microbe, parasite or virus in culture. The format is functional, organism-based, Hepacivirus hominis. Conditions: genotype 2a J6/JFH, Huh-7, 48 h.
A short description of data set [2]: Cytotoxicity against human Huh7.5 cells assessed as cell viability after 48 hrs by Alamar blue assay.
Data set [3] in a line: Inhibition of HCV NS3 protease (1027 to 1206) after 30 mins in presence of Pep4AK. Also on record: species or system Hepacivirus hominis.

14 compounds from ChEMBL document CHEMBL2380261, “Analogs design, synthesis and biological evaluation of peptidomimetics with potential anti-HCV activity” (Bioorg Med Chem, 2013) can be followed below.

Bounds are passed on as bounds.

Description for Hepatitis C virus: Antiviral activity against Hepatitis C virus subtype 2a J6/JFH transfected in human Huh7.5 cells assessed as inhibition of viral replication after 48 hrs by luciferase reporter gene assay

Turning to `CC(C)[C@H](NC(=O)CCC(=O)/C=C/c1ccccc1)C(=O)O`, in data set [1], the selectivity ratio was greater than 4.45. Further, in the data set on Hepatitis C virus, the midpoint of the response, the EC50, lay at 22.5 µM. For the same compound, in data set [2], the CC50 (as a rule, the concentration giving 50% cytotoxicity) at 48 h was greater than 100 µM.
For the compound `C[C@H](NC(=O)CCC(=O)/C=C/c1ccc2c(c1)OCO2)C(=O)O`, the selectivity ratio in data set [1] came out at 2.22. Besides, the response in the data set on Hepatitis C virus was half-maximal at 5.44 µM (EC50). The cytotoxic concentration (CC50) at 48 h in data set [2] amounted to 12.1 µM.
As to `CCOS(=O)(=O)/C=C/[C@H](Cc1ccccc1)NC(=O)OC(C)(C)C`, the selectivity ratio in data set [1] is 2.88. Further, in the data set on Hepatitis C virus, a half-maximal effect (EC50) was put at 1.21 µM. In addition, the half-maximal cytotoxic concentration (CC50) at 48 h in data set [2] came out at 3.5 µM.
Regarding `CCOS(=O)(=O)/C=C/[C@H](Cc1ccccc1)NC(=O)CCC(=O)/C=C/c1ccccc1`, a half-maximal response in the data set on Hepatitis C virus (EC50) required 0.296 µM. Moreover, the half-maximal cytotoxic concentration (CC50) at 48 h in data set [2] came to 1 µM.
Turning to `CCOS(=O)(=O)/C=C/[C@H](Cc1ccccc1)NC(C)=O`, the selectivity ratio in data set [1] stood at 3.75. Besides, the 50% effective concentration (EC50) (in general, the midpoint of the concentration-response curve) in the data set on Hepatitis C virus amounted to 2.11 µM. Besides, the CC50 at 48 h in data set [2] is 7.91 µM.
As for `CCOS(=O)(=O)/C=C/[C@@H](NC(C)=O)[C@@H](C)O`, the selectivity ratio in data set [1] came out at 6.36. In the data set on Hepatitis C virus, this compound gave an EC50 of 4.36 µM. Also, in data set [2], the half-maximal cytotoxic concentration (CC50) at 48 h was found to be 27.7 µM.
With `CC(C)C[C@H](NC(=O)[C@]1(Cc2ccsc2C(=O)O)Cc2ccccc2N1)C(=O)N[C@@H](CC(F)F)C(=O)C(=O)O`, the half-inhibitory concentration (IC50) (usually the midpoint of a concentration-inhibition curve) in data set [3] was 0.7 µM.
Regarding `COC(=O)[C@H](C)NC(=O)CCC(=O)/C=C/c1ccccc1`, in data set [1], the selectivity ratio turned out to be 1.37. Further, the concentration giving a half-maximal response (EC50) in the data set on Hepatitis C virus was determined as 0.96 µM. The half-maximal cytotoxic concentration (CC50) at 48 h in data set [2] was 1.32 µM.
In the case of `COC(=O)[C@@H](NC(=O)CCC(=O)/C=C/c1ccccc1)C(C)C`, the selectivity ratio in data set [1] was 3.88. In the data set on Hepatitis C virus, this compound returned a concentration giving a half-maximal response (EC50) of 0.381 µM. Moreover, the cytotoxic concentration (CC50) at 48 h in data set [2] turned out to be 1.48 µM.
`COC(=O)[C@H](C)NC(=O)CCC(=O)/C=C/c1cccnc1`: the selectivity ratio in data set [1] was 2.34. This compound also displayed a 50% effective concentration (EC50) with Hepatitis C virus of 0.9 µM. For the same compound, the half-maximal cytotoxic concentration (CC50) at 48 h in data set [2] came out at 2.11 µM.
In the case of `COC(=O)[C@@H](NC(=O)CCC(=O)/C=C/c1cccnc1)C(C)C`, the selectivity ratio in data set [1] was determined as 1.38. This compound came in with a half-maximal effective concentration (EC50) with Hepatitis C virus of 1.14 µM. Moreover, the CC50 at 48 h in data set [2] was 1.57 µM.
For the compound `COC(=O)[C@H](C)NC(=O)CCC(=O)/C=C/c1ccc2c(c1)OCO2`, the selectivity ratio in data set [1] stood at 3.19. Also, the EC50 in the data set with Hepatitis C virus was 0.347 µM. For the same compound, the cytotoxic concentration (CC50) at 48 h in data set [2] was found to be 1.11 µM.
Turning to `COC(=O)[C@@H](NC(=O)CCC(=O)/C=C/c1ccc2c(c1)OCO2)C(C)C`, the selectivity ratio in data set [1] was found to be 2.83. In the data set with Hepatitis C virus, this compound showed an EC50 of 0.682 µM. For the same compound, the half-maximal cytotoxic concentration (CC50) at 48 h in data set [2] came to 1.39 µM.
In the case of `CC(C)(C)NC(=O)N[C@H](C(=O)N1C[C@H]2[C@@H]([C@H]1C(=O)NC(CC1CCC1)C(=O)C(N)=O)C2(C)C)C(C)(C)C` (stereo partly drawn) [BOCEPREVIR], in the data set with Hepatitis C virus, a half-maximal response (EC50) required 0.8 µM. For the same compound, the half-maximal cytotoxic concentration (CC50) at 48 h in data set [2] is greater than 100 µM.
